TGI data for 8 compounds are collected here from PubChem BioAssay (NCI).

Some test systems named below: HL-60(TB) leukemia; MDA-MB-231 breast; ACHN renal; UO-31 renal; HCC-2998 colon; SK-MEL-5 melanoma; KM12 colon; CCRF-CEM leukemia; SF-539 CNS; HS 578T breast; SF-268 CNS; COLO 205 colon; IGROV1 ovarian; EKVX NSCLC; TK-10 renal; MOLT-4 leukemia; MALME-3M melanoma; A498 renal; OVCAR-8 ovarian.
What all share (experiment): NCI-60 cell line screen, 48 h

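Grown in 96-well plates, cells were treated for 48 hours with each compound at five concentrations. Insufficient inhibition: endpoint recorded as highest concentration tested. TGI denotes the concentration required for complete inhibition of growth.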 Some results are limits rather than exact numbers.

As for `CC(=O)OC[C@@H](OC(C)=O)[C@@H](OC(C)=O)[C@H]1OC[C@@H]2C[C@H]([C@H]1OC(C)=O)N(Cc1ccccc1)O2`, the TGI with HL-60(TB) leukemia, in the assay on MDA-MB-231 breast, with ACHN renal, in the assay with UO-31 renal, in the assay with HCC-2998 colon and in the assay with SK-MEL-5 melanoma was over 100 µM each time. The TGI with KM12 colon, in the assay with CCRF-CEM leukemia, with SF-539 CNS, in the assay with HS 578T breast, in the assay on SF-268 CNS and in the assay with COLO 205 colon was over 100 µM throughout. The TGI with IGROV1 ovarian, in the assay with EKVX NSCLC, in the assay on TK-10 renal, in the assay on MOLT-4 leukemia and with MALME-3M melanoma was over 100 µM throughout.
As to `COc1cc(C2(O)c3ccccc3C3=NCCN32)cc(OC)c1OC` (stereo not given), the TGI in the assay with HL-60(TB) leukemia, in the assay with MDA-MB-231 breast, in the assay with ACHN renal, in the assay with UO-31 renal, in the assay on HCC-2998 colon and in the assay with SK-MEL-5 melanoma was over 100 µM throughout. In addition, the TGI in the assay with KM12 colon, in the assay on CCRF-CEM leukemia, in the assay on HS 578T breast, in the assay on SF-268 CNS, with COLO 205 colon and with A498 renal was over 100 µM each time. Also, the TGI in the assay on TK-10 renal and in the assay with MOLT-4 leukemia was over 100 µM each time.
In the case of `CN(C)c1ccc(N=Nc2cccc3ncccc23)cc1`, the TGI with HL-60(TB) leukemia was 35.9 µM; in the assay with MDA-MB-231 breast, over 100 µM; in the assay on ACHN renal, over 100 µM; in the assay on UO-31 renal it was over 100 µM; in the assay with HCC-2998 colon, over 100 µM; in the assay with SK-MEL-5 melanoma it was 61.2 µM. The TGI in the assay on KM12 colon, in the assay with CCRF-CEM leukemia, in the assay with SF-539 CNS, in the assay with HS 578T breast, in the assay with SF-268 CNS and with COLO 205 colon was over 100 µM throughout. For the same compound, the TGI in the assay with IGROV1 ovarian, in the assay with EKVX NSCLC, in the assay on TK-10 renal, in the assay with MOLT-4 leukemia, with OVCAR-8 ovarian and in the assay on MALME-3M melanoma was over 100 µM throughout.
For the compound `CC(=O)N1N=C(c2c(O)ccc3ccccc23)CC1c1ccc(Cl)cc1` (stereo not given), the TGI in the assay with MDA-MB-231 breast is 43.5 µM; with ACHN renal it was over 100 µM; with UO-31 renal it was 93.4 µM; in the assay on HCC-2998 colon it was 34 µM; in the assay on SK-MEL-5 melanoma, 47 µM; with KM12 colon it was 29.9 µM. Also, the TGI was 25.7 µM in the assay with CCRF-CEM leukemia; 37.4 µM in the assay on SF-539 CNS; 45.1 µM with HS 578T breast; over 100 µM in the assay with SF-268 CNS; 39.2 µM in the assay with COLO 205 colon; 66.3 µM in the assay on A498 renal. Also, the TGI was 63.9 µM in the assay with IGROV1 ovarian; over 100 µM in the assay with TK-10 renal; 31 µM in the assay with MOLT-4 leukemia; over 100 µM in the assay with OVCAR-8 ovarian; 76.8 µM in the assay on MALME-3M melanoma.
With `Nc1cccc(C#Cc2cccc(C#Cc3cccc(N)n3)n2)n1`, the TGI in the assay on MDA-MB-231 breast, in the assay on ACHN renal, in the assay on UO-31 renal, with HCC-2998 colon, with SK-MEL-5 melanoma and in the assay on KM12 colon was over 100 µM in each case. The TGI in the assay with CCRF-CEM leukemia is 31.4 µM; in the assay on SF-539 CNS it was over 100 µM; in the assay with HS 578T breast, over 100 µM; in the assay with SF-268 CNS, over 100 µM; in the assay on COLO 205 colon, over 100 µM; in the assay on A498 renal, over 100 µM. Further, the TGI in the assay with IGROV1 ovarian, with EKVX NSCLC, in the assay on TK-10 renal, in the assay with MOLT-4 leukemia and in the assay with OVCAR-8 ovarian was over 100 µM throughout.
On to `O=[N+]([O-])/C=C/COCc1cc2c(cc1Br)OCO2`, for which the TGI came out at 33 µM with MDA-MB-231 breast; 30 µM in the assay on ACHN renal; 32.3 µM in the assay with UO-31 renal; 34.2 µM in the assay with HCC-2998 colon; 37.1 µM in the assay with SK-MEL-5 melanoma; 33.8 µM with KM12 colon. Also, the TGI in the assay with CCRF-CEM leukemia is 11.5 µM; with SF-539 CNS, 63.6 µM; with HS 578T breast, 50.3 µM; in the assay with SF-268 CNS, 41.4 µM; in the assay with COLO 205 colon, 43.6 µM; in the assay with A498 renal, 86.4 µM. Further, the TGI in the assay with IGROV1 ovarian was over 100 µM; in the assay with EKVX NSCLC it was 48.8 µM; in the assay on TK-10 renal, 34.8 µM; with MOLT-4 leukemia, over 100 µM; with OVCAR-8 ovarian, over 100 µM.
On to `COc1ccc2c(c1)N=C1CSC(c3c(Cl)cccc3[N+](=O)[O-])N1C2` (stereo not given), for which the TGI is 79.3 µM in the assay with HL-60(TB) leukemia; over 100 µM in the assay on MDA-MB-231 breast; over 100 µM in the assay on ACHN renal; over 100 µM in the assay with UO-31 renal; 47.7 µM in the assay with HCC-2998 colon; 39.5 µM with SK-MEL-5 melanoma. The TGI in the assay with KM12 colon, in the assay on SF-539 CNS, in the assay with HS 578T breast, in the assay on SF-268 CNS, with COLO 205 colon and in the assay with IGROV1 ovarian was over 100 µM throughout. Besides, the TGI with EKVX NSCLC, in the assay on TK-10 renal, in the assay on MOLT-4 leukemia, in the assay on OVCAR-8 ovarian and in the assay with MALME-3M melanoma was over 100 µM each time.
Take `N#C/C(=C\c1ccc(Br)cc1)c1nc(-c2cc3ccccc3oc2=O)cs1`: the TGI with HL-60(TB) leukemia was over 50 µM; in the assay with MDA-MB-231 breast it was 20.6 µM; with ACHN renal, 26.1 µM; in the assay with UO-31 renal it was over 50 µM; with HCC-2998 colon, over 50 µM; in the assay on SK-MEL-5 melanoma, over 50 µM. Besides, the TGI with KM12 colon is over 50 µM; in the assay with CCRF-CEM leukemia it was over 50 µM; in the assay on SF-539 CNS, 40.4 µM; in the assay on HS 578T breast it was 41.1 µM; in the assay on SF-268 CNS, over 50 µM; with COLO 205 colon, over 50 µM. For the same compound, the TGI in the assay with IGROV1 ovarian was over 50 µM; in the assay on EKVX NSCLC, over 50 µM; in the assay on TK-10 renal, 22.9 µM; in the assay with MOLT-4 leukemia, over 50 µM; in the assay with OVCAR-8 ovarian, over 50 µM; in the assay with MALME-3M melanoma, 27.6 µM.
